Patent publication US8912144B2, “Method for treating stroke via administration of NEP1-40 and inosine” (Children's Medical Center Corporation, priority 2003, dated 2014)
“Also recorded” adds a separate entry of the source.

Key:
Format in all cases: in vivo, rat
[1] = tested on: sensorimotor cortex infarct; assay: Lesion size / stroke volume after photothrombotic focal ischemia; conditions: 4 weeks treatment after focal ischemia
Procedure: All procedures were carried out in accordance with NIH Guidelines with the approval of Children's Hospital Animal Care and Use Committee. Unilateral in-farcts were induced in the sensorimotor cortex of adult Sprague-Dawley rats (275-300 g; Charles River Laboratories, Wilmington, Mass.) using the photothrombotic model of focal ischemia (Markgraf et al., 1993). Briefly, rats were anesthetized with a combination of ketamine (75 mg/kg) and Domitor (medetomidine; 0.5 mg/kg) and a 15 mm skin incision was made at the midline rostral to the posterior suture. A craniotomy was performed over the sensorimotor cortex using a hand-held drill to open a window that spanned medio-laterally between the sagittal sinus and temporal ridge, and rostro-caudally between Bregma +2.5 mm and Bregma −3.5 mm. […]
Sections through the telencephalon were cut at 10 μm, mounted on slides, and stained with Crystal Violet to determine the extent of the lesions. […] The area of the injured and uninjured hemisphere of each section was determined using NIH Image-J software. Lesion area was determined by subtracting the area of tissue remaining in the injured hemisphere from that in the uninjured hemisphere in sections spaced 250 μm apart spanning the full rostrocaudal extent of the lesion. […]

[2] = tested on: corticospinal tract (CST) axons; assay: BDA anterograde tracing of CST fibers from the undamaged hemisphere into the denervated side of the spinal cord after stroke
Procedure: All procedures were carried out in accordance with NIH Guidelines with the approval of Children's Hospital Animal Care and Use Committee. Unilateral in-farcts were induced in the sensorimotor cortex of adult Sprague-Dawley rats (275-300 g; Charles River Laboratories, Wilmington, Mass.) using the photothrombotic model of focal ischemia (Markgraf et al., 1993). Briefly, rats were anesthetized with a combination of ketamine (75 mg/kg) and Domitor (medetomidine; 0.5 mg/kg) and a 15 mm skin incision was made at the midline rostral to the posterior suture. A craniotomy was performed over the sensorimotor cortex using a hand-held drill to open a window that spanned medio-laterally between the sagittal sinus and temporal ridge, and rostro-caudally between Bregma +2.5 mm and Bregma −3.5 mm. The photosensitive dye Rose Bengal was injected into the femoral vein, and a fiber-optic cable connected to a xenon light source was centered over the craniotomy, focusing light directly on the exposed region of the brain for 30 minutes. A green filter fitted over the bulb restricted illumination to ˜525 nm, a wavelength that excites Rose Bengal and causes it to release free radical species. The subsequent damage to endothelial cells in exposed portions of the cortical vasculature causes platelet aggregation, resulting in severe focal ischemia. […] Control animals were generated using the same surgical procedure but without photo-activation of Rose Bengal. Animals with strokes were randomly assigned to receive a continuous infusion of either saline (0.9%, Baxter Scientific; n=12), inosine (50 mM in saline, Sigma-Aldrich Co., St. Louis, Mo.; n=12), NEP1-40 (500 μM in 2.5% DMSO/97.5% saline; n=12), or inosine +NEP1-40 (n=12) into the cisterna magna using osmotic minipumps (0.25 μl/h, Alzet model 2004, Durect Corpora-tion, Palo Alto, Calif.). In addition to these, a separate set of animals with the same 4 groups (n=12 in each) was created for a long-term behavioral study. Because CSF drug concentrations presumably require several hours to achieve steady-state levels when delivered via slow-releasing osmotic pumps, all animals received a 25 μl intraventricular bolus of the appropriate agent prior to pump placement. Pumps were tucked between the shoulder blades and infusion needles were secured onto the cranium with a silicon-based glue. The incision was closed with silk sutures and cleaned with betadine and ethanol pads. For 72 hours following surgery, animals received twice-daily, subcu-taneous injections of Buprenex (buprenorphine; Reckitt Benkiser Pharmaceuticals Inc., Richmond, Va.) for pain management.
In groups treated for four weeks after stroke, animals were re-anesthetized, the infusion needle and pump were removed, and a craniotomy was performed over the uninjured SMA. The anterograde tracer bioti-nylated dextran amine (BDA: Molecular Probes: 10% wt/vol in sterile saline) was injected stereotaxically at depths of 0.5, 1.0, and 2.0 mm below the cortical surface at 18 standardized points distributed over the sensorimotor cortex (70 nl per injection; Nano-ject, Drummond Scientific, Broomall, Pa.). Two weeks later, animals were anesthetized and perfused transcardially with 0.9% saline followed by 4% paraformaldehyde. The brain and spinal cord were dissected and post-fixed overnight in 4% paraformaldehyde, followed by 10% and 30% sucrose solutions over the next few days. Tissue was em-bedded in OCT Tissue Tek Medium (Sakura Finetek USA Inc., CA) and frozen on dry ice. Forty micron free-floating sections were cut in the coronal plane on a Frigo-Jung 8500 cryostat. Free-floating spinal cord sections were used to detect crossing fibers using avidin-biotin complex conjugated to horseradish peroxidase (Vectastain ABC Kit; Vector Laboratories), followed by Vector SG (Vector Laboratories) as a chromagen. Sections were mounted on pre-coated slides and lightly counterstained with eosin to distinguish grey and white matter boundaries. […]

[3] = Basso-Beatty-Bresnahan (BBB) locomotor test after dorsal hemisection of the spinal cord; conditions: i.c.v. (50 mM, 0.25 μl/hour) or i.v. (260 mM, 10 μl/hour) for 4 weeks
Procedure: To test the effects of inosine on spinal cord injury, the dorsal half of the spinal cord in rats was transected, severing the descending CST and other pathways. CST loss severely disrupted fine, skilled behaviors. Inosine was then administered either intra-cerebroventricularly (50 mM, 0.25 μl/hour) or intravenously (260 mM, 10 μl/hour) for 4 weeks. […] Complete transection of the corticospinal tract was verified histologically. The effectiveness of inosine was clinically relevant, since it avoids the risk of intracerebral infection.

[4] = 4 weeks treatment after stroke, vs saline

OC[C@H]1O[C@@H](n2cnc3c(O)ncnc32)[C@H](O)[C@@H]1O [inosine]
lesion size (mean±S.E.M) [1]: 81.1±8.6 pixels | number of synaptic bouton-like structures ([2]; 0.25 mm^2 box spanning Laminae VI and VII, vs saline): tripled | increase in number of labeled fibers ≧40 μm in gray matter on the denervated side [2, 4]: 2.5 fold | increase in number of lengthy axons (>200 μm) in gray matter on the denervated side [2, 4]: 3.5 fold | number of BDA-labeled CST fibers, inosine- vs saline-treated ([2]; CST axons labeled two weeks after stroke): No significant differences | increase in number of CST fibers re-crossing the midline to enter the denervated dorsal funiculus, relative to controls ([2]; inosine 50 mM infusion 4 weeks after stroke): three-fold | number of CST fibers in the denervated dorsal funiculus relative to NEP1-40 alone ([2]; inosine combined with NEP1-40): did not increase | number of axons >40 μm in the cervical gray matter relative to NEP1-40 alone ([2]; inosine combined with NEP1-40): strongly increased | number of axons >200 μm in the cervical gray matter relative to NEP1-40 alone ([2]; inosine combined with NEP1-40): strongly increased | performance on BBB test for general locomotor activity [3]: enhanced performance; also recorded: returned to near-normal level of performance
